Counter-ions that a name gives are not always drawn. Blank lines part the entries; values can stand above or below the compound they belong to.
Experiments:
DBA/2 mice = assay: Audiogenic seizure model in DBA/2 mice; type: in vivo; details: protected/tested
Method: Audiogenic Seizure Model in DBA/2 Mice
In Vivo Biological Protocol
A compound of the present invention was dissolved in water using 10% (weight/volume) Emulphor (GAF Corp., Wayne, N.J.) surfactant. Substances were administered by intravenous injection into the retro-orbital venous sinus. All testing was performed 15 minutes or 45 minutes after drug injection. All the male mice, 3 to 4 weeks old, were obtained from Jackson Laboratories, Bar Harbour, Me. Immediately before anticonvulsant testing, mice were placed upon a wire mesh, 4 inches square suspended from a steel rod. […] Any mouse falling from the wire mesh was scored as ataxic.
Mice were placed into an enclosed acrylic plastic chamber (21 cm height, approximately 30 cm diameter) with a high-frequency speaker (4 cm diameter) in the center of the top lid. An audio signal generator (Protek model B-810) was used to produce a continuous sinusoidal tone that was swept linearly in frequency between 8 kHz and 16 kHz once each 10 msec. The average sound pressure level (SPL) during stimulation was approximately 100 dB at the floor of the chamber. Mice were placed within the chamber and allowed to acclimatize for 1 minute. DBA/2 mice in the vehicle-treated group responded to the sound stimulus (applied until tonic extension occurred, or for a maximum of 60 seconds) with a characteristic seizure sequence consisting of wild running followed by clonic seizures, and later by tonic extension, and finally by respiratory arrest and death in 80% or more of the mice. In vehicle-treated mice, the entire sequence of seizures to respiratory arrest lasts approximately 15 to 20 seconds.
The incidence of all the seizure phases in the drug-treated and vehicle-treated mice was recorded, and the occurrence of tonic seizures were used for calculating anticonvulsant ED50 values by probit analysis. Mice were used only once for testing at each time and dose point.

N-type Ca^2+ channel = biological target: T1, N-type Ca^2+ channel (Homo sapiens, UniProt Q00975); assay: N-type Ca2+ channel blocking potency in IMR-32 cells using the fluorescent Ca2+ indicator Indo-1; type: cell-based; details: for IC50: K+-stimulated Ca2+ flux, 5 μM nitrendipine to block L-type channels, read-out: IMR32 IC50; for IMR32 % @ 1: at 1 μM; for IMR32 % @ 1 / IMR32 % @ 10: 5 μM nitrendipine; for IMR32 % @ 10: at 10 μM
T1 construct: host or cells: IMR-32 human neuroblastoma cells, differentiated with dibutyryl cAMP and bromodeoxyuridine
T1 sequence (Q00975 whole entry): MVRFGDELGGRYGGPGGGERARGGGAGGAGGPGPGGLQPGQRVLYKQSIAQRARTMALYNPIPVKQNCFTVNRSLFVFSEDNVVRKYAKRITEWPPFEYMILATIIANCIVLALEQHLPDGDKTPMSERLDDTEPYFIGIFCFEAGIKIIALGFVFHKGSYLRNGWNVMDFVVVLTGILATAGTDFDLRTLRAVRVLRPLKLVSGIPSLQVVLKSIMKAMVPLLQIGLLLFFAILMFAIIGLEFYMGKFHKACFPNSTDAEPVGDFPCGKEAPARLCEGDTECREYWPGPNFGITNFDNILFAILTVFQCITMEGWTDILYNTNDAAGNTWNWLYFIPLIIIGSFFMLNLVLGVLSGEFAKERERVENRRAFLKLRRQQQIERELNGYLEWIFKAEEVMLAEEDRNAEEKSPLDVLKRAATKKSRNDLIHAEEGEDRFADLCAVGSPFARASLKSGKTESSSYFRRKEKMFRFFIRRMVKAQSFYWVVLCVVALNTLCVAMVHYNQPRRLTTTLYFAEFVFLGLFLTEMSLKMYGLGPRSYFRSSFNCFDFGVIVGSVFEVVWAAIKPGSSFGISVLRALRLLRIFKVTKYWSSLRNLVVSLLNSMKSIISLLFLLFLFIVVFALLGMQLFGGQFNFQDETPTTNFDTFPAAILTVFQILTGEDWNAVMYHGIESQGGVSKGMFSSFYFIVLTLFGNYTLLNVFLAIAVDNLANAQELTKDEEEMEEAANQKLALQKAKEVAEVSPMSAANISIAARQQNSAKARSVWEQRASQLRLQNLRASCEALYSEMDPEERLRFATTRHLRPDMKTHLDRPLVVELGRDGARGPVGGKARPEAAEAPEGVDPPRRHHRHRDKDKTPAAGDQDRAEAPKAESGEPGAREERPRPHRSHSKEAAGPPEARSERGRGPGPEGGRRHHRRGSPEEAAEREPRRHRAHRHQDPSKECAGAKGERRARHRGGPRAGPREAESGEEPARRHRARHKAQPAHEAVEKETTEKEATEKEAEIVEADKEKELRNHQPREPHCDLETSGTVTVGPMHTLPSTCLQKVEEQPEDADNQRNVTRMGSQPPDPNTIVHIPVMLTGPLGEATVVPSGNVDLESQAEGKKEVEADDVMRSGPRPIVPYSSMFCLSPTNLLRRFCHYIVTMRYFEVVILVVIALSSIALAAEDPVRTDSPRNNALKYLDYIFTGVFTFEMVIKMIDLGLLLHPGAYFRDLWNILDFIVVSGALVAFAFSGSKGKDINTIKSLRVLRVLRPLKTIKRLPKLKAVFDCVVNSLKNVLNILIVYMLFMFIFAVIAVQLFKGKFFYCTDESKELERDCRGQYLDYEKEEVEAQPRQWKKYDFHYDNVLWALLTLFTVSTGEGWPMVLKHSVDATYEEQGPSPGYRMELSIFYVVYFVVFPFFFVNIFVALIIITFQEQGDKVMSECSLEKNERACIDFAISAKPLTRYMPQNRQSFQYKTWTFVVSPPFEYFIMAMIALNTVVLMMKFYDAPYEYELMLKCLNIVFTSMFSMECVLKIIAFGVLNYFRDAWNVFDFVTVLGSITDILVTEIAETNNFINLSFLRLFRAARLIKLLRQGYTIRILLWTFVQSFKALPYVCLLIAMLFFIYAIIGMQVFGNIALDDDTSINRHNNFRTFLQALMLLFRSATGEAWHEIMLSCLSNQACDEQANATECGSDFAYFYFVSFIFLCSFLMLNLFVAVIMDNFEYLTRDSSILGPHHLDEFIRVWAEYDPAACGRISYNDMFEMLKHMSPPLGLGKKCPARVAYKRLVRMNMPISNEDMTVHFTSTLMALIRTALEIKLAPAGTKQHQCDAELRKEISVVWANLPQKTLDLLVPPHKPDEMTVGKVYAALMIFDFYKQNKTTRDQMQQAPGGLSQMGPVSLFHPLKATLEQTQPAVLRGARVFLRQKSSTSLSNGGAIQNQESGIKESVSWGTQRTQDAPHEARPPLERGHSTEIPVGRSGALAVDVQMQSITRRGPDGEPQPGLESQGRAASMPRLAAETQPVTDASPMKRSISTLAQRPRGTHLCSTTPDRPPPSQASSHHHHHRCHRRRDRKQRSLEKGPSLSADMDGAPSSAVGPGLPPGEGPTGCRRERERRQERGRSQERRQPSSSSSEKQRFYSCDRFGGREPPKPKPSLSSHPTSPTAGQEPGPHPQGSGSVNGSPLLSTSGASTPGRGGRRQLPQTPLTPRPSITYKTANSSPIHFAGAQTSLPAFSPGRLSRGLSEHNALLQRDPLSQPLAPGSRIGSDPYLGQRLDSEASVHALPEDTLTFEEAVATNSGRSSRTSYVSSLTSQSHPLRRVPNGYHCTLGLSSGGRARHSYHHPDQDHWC
T1 sequence (P54289 25-956 partner limits assumed): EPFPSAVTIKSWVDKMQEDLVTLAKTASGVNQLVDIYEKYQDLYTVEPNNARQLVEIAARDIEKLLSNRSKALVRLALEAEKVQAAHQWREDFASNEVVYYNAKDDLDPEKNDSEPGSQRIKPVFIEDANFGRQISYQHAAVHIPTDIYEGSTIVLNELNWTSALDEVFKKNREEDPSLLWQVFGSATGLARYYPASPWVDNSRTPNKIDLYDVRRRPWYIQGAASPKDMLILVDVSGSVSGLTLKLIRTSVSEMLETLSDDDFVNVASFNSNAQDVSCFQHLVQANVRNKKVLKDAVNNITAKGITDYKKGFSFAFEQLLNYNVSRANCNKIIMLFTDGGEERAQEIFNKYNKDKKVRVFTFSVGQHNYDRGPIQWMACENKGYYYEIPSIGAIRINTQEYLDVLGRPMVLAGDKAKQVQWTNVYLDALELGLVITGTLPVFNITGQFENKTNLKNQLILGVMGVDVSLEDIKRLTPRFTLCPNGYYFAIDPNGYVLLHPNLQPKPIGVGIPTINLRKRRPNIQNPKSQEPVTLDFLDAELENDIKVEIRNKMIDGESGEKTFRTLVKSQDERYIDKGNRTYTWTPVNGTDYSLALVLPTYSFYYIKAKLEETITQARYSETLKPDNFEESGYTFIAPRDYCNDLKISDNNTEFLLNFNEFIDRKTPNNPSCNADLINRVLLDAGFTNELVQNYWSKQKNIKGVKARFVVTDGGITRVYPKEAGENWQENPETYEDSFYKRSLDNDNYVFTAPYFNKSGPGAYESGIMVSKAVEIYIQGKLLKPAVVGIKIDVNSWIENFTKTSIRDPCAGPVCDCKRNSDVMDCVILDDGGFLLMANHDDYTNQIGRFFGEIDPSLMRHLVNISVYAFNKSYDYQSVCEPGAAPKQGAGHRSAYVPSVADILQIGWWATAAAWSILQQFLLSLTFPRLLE
T1 sequence (P54289 957-1103 partner limits assumed): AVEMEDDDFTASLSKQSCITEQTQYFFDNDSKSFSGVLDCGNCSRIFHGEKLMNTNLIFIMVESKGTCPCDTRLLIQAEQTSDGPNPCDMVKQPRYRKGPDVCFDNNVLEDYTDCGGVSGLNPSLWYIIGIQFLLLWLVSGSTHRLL
T1 sequence (P54284 whole entry partner): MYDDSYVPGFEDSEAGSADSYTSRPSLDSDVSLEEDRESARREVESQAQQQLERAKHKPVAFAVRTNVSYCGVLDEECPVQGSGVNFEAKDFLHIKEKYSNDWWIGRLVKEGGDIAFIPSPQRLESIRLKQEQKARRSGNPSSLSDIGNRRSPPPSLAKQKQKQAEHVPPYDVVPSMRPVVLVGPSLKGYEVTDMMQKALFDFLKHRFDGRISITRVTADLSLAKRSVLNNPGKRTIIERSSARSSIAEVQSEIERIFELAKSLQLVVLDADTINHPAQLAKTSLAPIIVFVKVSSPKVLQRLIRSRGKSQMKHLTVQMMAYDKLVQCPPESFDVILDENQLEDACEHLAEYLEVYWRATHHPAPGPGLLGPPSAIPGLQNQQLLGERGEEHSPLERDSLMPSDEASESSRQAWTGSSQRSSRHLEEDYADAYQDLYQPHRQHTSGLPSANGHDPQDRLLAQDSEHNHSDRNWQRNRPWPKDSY
Method: Measurement of N-type Ca^2+ Channel Blocking Potencies of Compounds in IMR-32 Cells Using the Fluorescent Ca^2+ Indicator Indo-1
IMR-32 cells are a human tumoral cell line of neural origin. […] Calcium flux into these cells may be induced by stimulation with elevated potassium concentrations. The L-channel component of calcium flux may be blocked by adding 5 μM nitrendipine. The remaining component of calcium entry into the IMR-32 cells is due to calcium flux through N-type calcium channels. Intracellular calcium concentrations are measured using the fluorescent calcium indicator Indo-1. The effect of drug concentration on calcium uptake is studied.
The IMR-32 cell line was obtained from the American Type Culture Collection (Rockville, Md.). Cells were grown in Eagle's Minimum Essential Medium with Earle's salts supplemented with 10% fetal bovine serum, 2 mM L-Gln and antibiotic/antimicotic mixture (Gibco). At approximately 80% confluency, differentiation was induced by the addition of 1 mM dibutyryl cAMP and 2.5 μM bromodeoxyuridine to the medium. After 7 to 13 days of differentiation, cells were detached using 0.5 mM EDTA and loaded with 5 μM Indo-1 acetoxymethyl ester (Molecular Probes, Eugene, Oreg.) at […] for 45 minutes. Loaded cells were washed twice, resuspended (~10^7 cells/mL) in assay buffer (10 mM HEPES/Tris pH 7.4 in Hank's Balanced Salt Solution without bicarbonate or phenol red containing 0.5% bovine serum albumin) and kept on ice until use. Fluorescence measurements were carried out in a Photon Technology International (PTI, South Brunswick, N.J.) Model RF-F3004 spectrofluorometer with dual emission monochromators using excitation at 350 nm and emission at 400 and 490 nm. The instrument was equipped with a thermostated cuvette holder with stirring capabilities, as well as with a computer-controlled pump that allowed for reagent addition during measurement. Instrument control and data collection was done by PTI's OSCAR software running on an IBM compatible computer. Different concentrations of the test compounds (60 μL in dimethyl sulfoxide) were added to 5.94 mL of assay buffer containing approximately 3×10^6 loaded cells, and 5 μM Nitrendipine (in 30 μL EtOH) to block L-type Ca^2+ channels. Samples were incubated for 10 minutes at 30° C. and then aliquoted into three 10×10 mm disposable acrylic cuvettes. Emission signals at 400 and 490 nm were acquired from each cuvette at 30° C. for 50 seconds. At 20 seconds after the start of reading, cells were depolarized by the addition of 160 μL of stimulation solution (1 M KCl, 68 mM CaCl2) to the cuvette via the computer-controlled pump. Ratio of dual emission signals (400 nm/490 nm), which is proportional to intracellular Ca^2+ concentration, was plotted against time, and the difference between maximal response after stimulation and basal value (before stimulation) was determined. Values obtained in this way were plotted as a function of drug concentration. IC50 values of test compounds were calculated by fitting a four-parameter logistic function to the data using the least squared method.

[1] = 30 mg/kg IV, 15 minutes post treatment
[2] = 30 mg/kg IV, 45 minutes post treatment
[3] = 10 mg/kg IV, 15 minutes post treatment

IC50 (N-type Ca^2+ channel): 450 nM
Compound: CC(C)(C)NCC(Cc1ccc(OCc2ccccc2)cc1)NCc1ccc(C(C)(C)C)cc1 (centres unmarked) [Example 14, 3-(4-Benzyloxy-phenyl)-N^1-tert-butyl-N^2-(4-tert-butyl-benzyl)-propane-1,2-diamine]
Number of Mice Protected from Tonic Convulsions (DBA/2 mice; [1]): 5/5
Number of Mice Protected from Tonic Convulsions (DBA/2 mice; [2]): 4/5

IMR32 % @ 1 (N-type Ca^2+ channel): 27%
IMR32 % @ 10 (N-type Ca^2+ channel): 61%
Compound: CC(C)CCN(CC1CCCCC1)[C@@H](Cc1ccc(OCc2ccccc2)cc1)C(=O)NC(C)(C)C.Cl [Example 5, (S)-3-(4-Benzyloxy-phenyl)-N-tert-butyl-2-[cyclohexyl-methyl-(3-methyl-butyl)-amino]-propionamide monohydrochloride]

IC50 (N-type Ca^2+ channel): 170 nM
Compound: CC(C)(C)c1ccc(CN(Cc2ccc(C(C)(C)C)cc2)C(CNCCN2CCCCC2)Cc2ccc(OCc3ccccc3)cc2)cc1 (centres unmarked) [Example 11, 3-(4-Benzyloxy-phenyl)-N^2, N^2-bis-(4-tert-butyl-benzyl)-N^1-(2-piperidin-1-yl-ethyl)-propane-1,2-diamine]

IC50 (N-type Ca^2+ channel): 280 nM
Compound: CC(C)(C)c1ccc(CNC(CNCCN2CCCCC2)Cc2ccc(OCc3ccccc3)cc2)cc1 (centres unmarked) [Example 12, 3-(4-Benzyloxy-phenyl)-N^2-(4-tert-butyl-benzyl)-N^1-(2-piperidin-1-yl-ethyl)-propane-1,2-diamine]
Number of Mice Protected from Tonic Convulsions (DBA/2 mice; [3]): 0/5

Continued, compound first:

Compound: CC(C)(C)c1ccc(CN(Cc2ccc(C(C)(C)C)cc2)[C@@H](Cc2ccc(OCc3ccccc3)cc2)C(=O)NCCN2CCCCC2)cc1 [Example 10, (S)-3-(4Benzyloxy-phenyl)-2-[bis-(4-tert-butyl-benzyl)-amino]-N-(2-piperidin-1-yl-ethyl)-propionamide]
IC50 (N-type Ca^2+ channel): 680 nM

Compound: CC(C)CCN(CCC(C)C)[C@@H](Cc1ccc(OCc2ccccc2)cc1)C(=O)NC(C)(C)C.Cl [Example 3, (S)-3-(4-Benzyloxy-phenyl)-2-[bis-(3-methyl-butyl)-amino]-N-tert-butyl-propionamide monohydrochloride]
Number of Mice Protected from Tonic Convulsions (DBA/2 mice; [1]): 4/5
IC50 (N-type Ca^2+ channel): 760 nM

Compound: CC(C)(C)CCN[C@@H](Cc1ccc(OCc2ccccc2)cc1)C(=O)NC(C)(C)C [Example 7, (S)-3-(4-Benzyloxy-phenyl)-N-tert-butyl-2-(3,3-dimethyl-butylamino)-propionamide monohydrochloride]
IC50 (N-type Ca^2+ channel): 1400 nM

Compound: CC(C)(C)c1ccc(CN[C@@H](Cc2ccc(OCc3ccccc3)cc2)C(=O)NCCN2CCCCC2)cc1 [Example 13, (S)-3-(4-Benzyloxy-phenyl)-2-(4-tert-butyl-benzylamino)-N-(2-piperidin-1-yl-ethyl)-propionamide]
Number of Mice Protected from Tonic Convulsions (DBA/2 mice; [3]): 0/5
Number of Mice Protected from Tonic Convulsions (DBA/2 mice; 10 mg/kg IV, 45 minutes post treatment): 1/5
Number of Mice Protected from Tonic Convulsions (DBA/2 mice; [1]): 4/5
Number of Mice Protected from Tonic Convulsions (DBA/2 mice; [2]): 4/5
IC50 (N-type Ca^2+ channel): 700 nM

Compound: CC(C)(C)CCN(CCC(C)(C)C)[C@@H](Cc1ccc(OCc2ccccc2)cc1)C(=O)NC(C)(C)C [Example 8, (S)-3-(4-Benyloxy-phenyl)-2-[bis-(3,3-dimethyl-butyl)-amino]-N-tert-butyl-propionamide monohydrochloride]
IC50 (N-type Ca^2+ channel): 790 nM

Compound: CC(C)CCC(CCC(C)C)N[C@@H](Cc1ccc(OCc2ccccc2)cc1)C(=O)NC(C)(C)C.Cl [Example 4, (S)-3-(4-Benzyloxy-phenyl)-N-tert-butyl-2-[4-methyl-1-(3-methyl-butyl)-pentylamino]-propionamide monohydrochloride]
IMR32 % @ 1 (N-type Ca^2+ channel): 45%
IMR32 % @ 10 (N-type Ca^2+ channel): 102%

Compound: CC(C)CCN(CCC(C)(C)C)[C@@H](Cc1ccc(OCc2ccccc2)cc1)C(=O)NC(C)(C)C.Cl [Example 6, (S)-3-(4-Benzyloxy-phenyl)-N-tert-butyl-2-[(3,3-dimethyl-butyl)-(3-methyl-butyl)-amino]-propionamide monohydrochloride]
Number of Mice Protected from Tonic Convulsions (DBA/2 mice; [1]): 2/5
Number of Mice Protected from Tonic Convulsions (DBA/2 mice; [2]): 4/5
IC50 (N-type Ca^2+ channel): 440 nM

Compound: (S)-3-(4-Benzyloxy-phenyl)-N-tert-butyl-2-(3-methyl-butylamino)-propionamide monohydrochloride [Example 2]
IC50 (N-type Ca^2+ channel): 2000 nM

Compound: CC(C)(C)NC(=O)[C@H](Cc1ccc(OCc2ccccc2)cc1)NC(=O)C1(c2ccccc2)CCCC1 [Example 1, (S)-1-Phenyl-cyclopentanecarboxylic acid [2-(4-benzyloxy-phenyl)-1-tert-butylcarbamoyl-ethyl]-amide]
IC50 (N-type Ca^2+ channel): 1200 nM

Compound: CC(C)(C)NC(=O)[C@H](Cc1ccc(OCc2ccccc2)cc1)NCc1ccc(C(C)(C)C)cc1 [Example 9, (S)-3-(4-Benzyloxy-phenyl)-N-tert-butyl-2-(4-tert-butyl-benzylamino)-propionamide monohydrochloride]
IC50 (N-type Ca^2+ channel): 2000 nM

From patent US6180677A, “Tyrosine-derived compounds as calcium channel antagonists” (Warner-Lambert Company, priority 1999, dated 2001)
